Data set [1] concerns primary murine retinal ganglion cells. As to the kind of experiment: Retinal ganglion cell (RGC) viability assay. Type of data set: cell-based. The conditions noted are these: among compounds 4, 19, 94 and 112. As to the method: The RGC assay detected the viability of primary murine retinal ganglion cells via Cell Titer Glo (Promega), using a previously described assay (Proc. Natl. Acad. Sci. USA. 2013, 110(10), 4045-50), which is incorporated herein by reference in its entirety.
RGCs were freshly isolated from approximately P2 murine retinas by immunopanning using mouse anti-CD90 coated plates. Cells are seeded into poly-D-lysine or laminin coated plates in Neurobasal medium supplemented by 1% Pen/Strep (Gibco 15140-122), 0.01 mg/ml insulin, 1 mM sodium pyruvate, 1% of 100× Sato (400 mg transferrin, 400 mg BSA, 0.25 mg progesterone, 64 mg putrescine, 160 μg sodium selenite in 40 mL Neurobasal medium), 0.04 μg/ml triiodo-thyronine, 2 mM L-glutamine, 0.05 mg/ml N-acetyl cysteine, 10 μM forskolin, 2% 50× B27 (Gibco 17504-044).
For the assay 500-2000 cells per well in a volume of 40 μl were used (384 MTP format). After 72 hours 20 μl Cell Titer Glo reagent was added and viability is measured via luminescent quantitation of ATP. The amount of ATP was directly proportional to the number of cells present in culture.

Data set [2] is described as follows: In vitro PK properties (metabolic stability). The class given is in vitro ADME. As to the method:
Metabolic stabilities in rat hepatocytes were determined by incubating the compounds at low concentrations (e.g., below 1 μM) and at low cell numbers (e.g., at 1×10^6 cells/ml) to ensure linear kinetics. 7 time-points from the incubation mixture were withdrawn for analysis to define the half-life of the compound. From that half-life the intrinsic clearance in hepatocytes was calculated and used further to extrapolate the blood clearance (using the well-stirred model) and the corresponding Fmax value (maximum expected bioavailability after first pass of the liver) for the compounds. The CL and Fmax values reflect Phase I and II metabolism in hepatocytes. To minimize the influence of organic solvents in the incubation mixture their content was limited to max. 1% for ACN or max. 0.2% for DMSO. The values given in row 5 in the table in FIG. 1 are rat hepatocytes CLblood [L/h/kg] and rat hepatocytes Fmax [%].

For another data set, the target named is DLK (Homo sapiens (Human), UniProt Q12852). As to the kind of experiment: DLK biochemical assay (TR-FRET, MKK7 phosphorylation). The method in brief:
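TR-FRET ratio (665/Eu) reports MKK7 T275/S277 phosphorylation, lowered by DLK inhibition. Reaction: 60 μM ATP, 15 nM MKK7, 10 nM DLK catalytic domain, 90 min room temperature; detection incubation 16 h, 37° C. (1536-well) or 4° C. (384-well). Final concentrations.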

Chain of DLK (Q12852 1-520): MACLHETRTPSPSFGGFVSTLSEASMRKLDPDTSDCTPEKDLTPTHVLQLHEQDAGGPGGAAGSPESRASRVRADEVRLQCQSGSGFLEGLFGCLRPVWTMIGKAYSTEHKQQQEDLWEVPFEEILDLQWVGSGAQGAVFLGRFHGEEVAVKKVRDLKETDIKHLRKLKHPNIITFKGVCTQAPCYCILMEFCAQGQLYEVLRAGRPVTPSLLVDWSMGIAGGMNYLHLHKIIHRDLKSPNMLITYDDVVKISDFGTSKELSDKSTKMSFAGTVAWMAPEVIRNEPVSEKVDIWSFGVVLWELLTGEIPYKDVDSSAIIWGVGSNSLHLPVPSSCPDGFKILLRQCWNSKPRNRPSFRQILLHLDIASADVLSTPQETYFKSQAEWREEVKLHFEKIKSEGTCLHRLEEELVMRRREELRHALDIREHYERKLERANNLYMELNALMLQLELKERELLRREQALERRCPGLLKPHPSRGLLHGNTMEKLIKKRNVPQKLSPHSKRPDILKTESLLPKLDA

On to `CC[C@H](NC(=O)c1cc(-c2cc(C(=O)N[C@@H](C)CC)c3nc(N)nn3c2)cs1)c1ccc(F)cc1` [Compound 112, 2-Amino-N-[(2S)-butan-2-yl]-6-(5-{[(1S)-1-(4-fluorophenyl)propyl]carbamoyl}thiophen-3-yl)[1,2,4]triazolo[1,5-a]pyridine-8-carboxamide], for which the “activity in RGC assay” value in data set [1] is reported as “most active”. Also, the metabolic stability entry in data set [2] is given as “metabolically labile”. Also, at DLK, the IC50 came to 3.2 nM.

The term IC50 denotes the concentration that inhibits the measured activity by half.

For the origin of these results see patent US20230382904A1, “SUBSTITUTED 4-([1,2,4]TRIAZOLO[1,5-a]PYRIDIN-6-YL)THIOPHENE-2-CARBOXAMIDE DERIVATIVES AND USE THEREOF” (The Johns Hopkins University, priority 2020, published 2023).
